According to ChEMBL document CHEMBL4177616, “Potent anti-melanogenic activity and favorable toxicity profile of selected 4-phenyl hydroxycoumarins in the zebrafish model and the computational molecular modeling studies” (Bioorg Med Chem, 2017):
Activity calls are given as the source filed them. The rule behind the calls is not given here.

Assays:
Melanocyte [1] = assay: Cytotoxicity against wild type zebrafish embryo melanocytes assessed as barely visible cells at 12.5 ug/ml treated for 72 hrs post fertilization starting from 6 to 24 hrs post fertilization; format: cell-based, Danio rerio
Danio rerio [2] = organism: Danio rerio; assay: Toxicity in wild type zebrafish embryos assessed as eyes at 10 ug/ml treated for 96 hrs post fertilization starting from 6 hrs post fertilization by inverted microscopic analysis relative to control; format: organism-based; details: in vivo
Danio rerio [3] = organism: Danio rerio; assay: Toxicity in wild type zebrafish embryos assessed as heart beat at 5 ug/ml treated for 96 hrs post fertilization starting from 6 hrs post fertilization by inverted microscopic analysis relative to control; format: organism-based; details: in vivo
Danio rerio [4] = organism: Danio rerio; assay: Toxicity in wild type zebrafish embryos assessed as head malformation at 5 ug/ml treated for 96 hrs post fertilization starting from 6 hrs post fertilization by inverted microscopic analysis relative to control; format: organism-based; details: in vivo
Danio rerio [5] = assay: Toxicity in wild type zebrafish embryos assessed as pericardial edema at 20 ug/ml treated for 96 hrs post fertilization starting from 6 hrs post fertilization by inverted microscopic analysis relative to control; format: organism-based; details: in vivo
Danio rerio [6] = organism: Danio rerio; assay: Toxicity in wild type zebrafish embryos assessed as unhatched embryo at 20 ug/ml treated for 96 hrs post fertilization starting from 6 hrs post fertilization by inverted microscopic analysis relative to control; format: organism-based; details: in vivo
Danio rerio [7] = organism: Danio rerio; assay: Toxicity in wild type zebrafish embryos assessed as head malformation at 10 ug/ml treated for 96 hrs post fertilization starting from 6 hrs post fertilization by inverted microscopic analysis relative to control; format: organism-based; details: in vivo
Danio rerio [8] = organism: Danio rerio; assay: Toxicity in wild type zebrafish embryos assessed as otoliths at 5 ug/ml treated for 96 hrs post fertilization starting from 6 hrs post fertilization by inverted microscopic analysis relative to control; format: organism-based; details: in vivo
Danio rerio [9] = organism: Danio rerio; assay: Toxicity in wild type zebrafish embryos assessed as heart beat at 25 ug/ml treated for 96 hrs post fertilization starting from 6 hrs post fertilization by inverted microscopic analysis relative to control; format: organism-based; details: in vivo
Danio rerio [10] = assay: Toxicity in wild type zebrafish embryos assessed as pericardial edema at 5 ug/ml treated for 96 hrs post fertilization starting from 6 hrs post fertilization by inverted microscopic analysis relative to control; format: organism-based; details: in vivo
Danio rerio [11] = organism: Danio rerio; assay: Toxicity in wild type zebrafish embryos assessed as notochord at 25 ug/ml treated for 96 hrs post fertilization starting from 6 hrs post fertilization by inverted microscopic analysis relative to control; format: organism-based; details: in vivo
[12] = Toxicity in wild type zebrafish embryos assessed as dead embryo at 20 ug/ml treated for 96 hrs post fertilization starting from 6 hrs post fertilization by inverted microscopic analysis relative to control; format: organism-based, Danio rerio; details: in vivo, read-out: Activity
Danio rerio [13] = organism: Danio rerio; assay: Toxicity in wild type zebrafish embryos assessed as normal embryo at 5 ug/ml treated for 96 hrs post fertilization starting from 6 hrs post fertilization by inverted microscopic analysis relative to control; format: organism-based; details: in vivo
Danio rerio [14] = organism: Danio rerio; assay: Toxicity in wild type zebrafish embryos assessed as normal embryo at 50 ug/ml treated for 96 hrs post fertilization starting from 6 hrs post fertilization by inverted microscopic analysis relative to control; format: organism-based; details: in vivo
Danio rerio [15] = organism: Danio rerio; assay: Toxicity in wild type zebrafish embryos assessed as skeletal deformities at 10 ug/ml treated for 96 hrs post fertilization starting from 6 hrs post fertilization by inverted microscopic analysis relative to control; format: organism-based; details: in vivo
Danio rerio [16] = organism: Danio rerio; assay: Toxicity in wild type zebrafish embryos assessed as heart beat at 20 ug/ml treated for 96 hrs post fertilization starting from 6 hrs post fertilization by inverted microscopic analysis relative to control; format: organism-based; details: in vivo
Danio rerio [17] = organism: Danio rerio; assay: Toxicity in wild type zebrafish embryos assessed as growth retardation at 5 ug/ml treated for 96 hrs post fertilization starting from 6 hrs post fertilization by inverted microscopic analysis relative to control; format: organism-based; details: in vivo
Danio rerio [18] = organism: Danio rerio; assay: Toxicity in wild type zebrafish embryos assessed as growth retardation at 10 ug/ml treated for 96 hrs post fertilization starting from 6 hrs post fertilization by inverted microscopic analysis relative to control; format: organism-based; details: in vivo
Danio rerio [19] = assay: Toxicity in wild type zebrafish embryos assessed as pericardial edema at 10 ug/ml treated for 96 hrs post fertilization starting from 6 hrs post fertilization by inverted microscopic analysis relative to control; format: organism-based; details: in vivo
Danio rerio [20] = organism: Danio rerio; assay: Toxicity in wild type zebrafish embryos assessed as notochord at 20 ug/ml treated for 96 hrs post fertilization starting from 6 hrs post fertilization by inverted microscopic analysis relative to control; format: organism-based; details: in vivo
Danio rerio [21] = organism: Danio rerio; assay: Toxicity in wild type zebrafish embryos assessed as teratogenic embryo at 10 ug/ml treated for 96 hrs post fertilization starting from 6 hrs post fertilization by inverted microscopic analysis relative to control; format: organism-based; details: in vivo
Danio rerio [22] = organism: Danio rerio; assay: Toxicity in wild type zebrafish embryos assessed as teratogenic embryo at 5 ug/ml treated for 96 hrs post fertilization starting from 6 hrs post fertilization by inverted microscopic analysis relative to control; format: organism-based; details: in vivo
Danio rerio [23] = organism: Danio rerio; assay: Toxicity in wild type zebrafish embryos assessed as teratogenic embryo at 25 ug/ml treated for 96 hrs post fertilization starting from 6 hrs post fertilization by inverted microscopic analysis relative to control; format: organism-based; details: in vivo
Danio rerio [24] = organism: Danio rerio; assay: Toxicity in wild type zebrafish embryos assessed as otoliths at 10 ug/ml treated for 96 hrs post fertilization starting from 6 hrs post fertilization by inverted microscopic analysis relative to control; format: organism-based; details: in vivo
Danio rerio [25] = organism: Danio rerio; assay: Toxicity in wild type zebrafish embryos assessed as normal embryo at 25 ug/ml treated for 96 hrs post fertilization starting from 6 hrs post fertilization by inverted microscopic analysis relative to control; format: organism-based; details: in vivo
Melanocyte [26] = assay: Cytotoxicity against wild type zebrafish embryo melanocytes assessed as small and rounded cells at 12.5 ug/ml treated for 72 hrs post fertilization starting from 6 to 24 hrs post fertilization; format: cell-based, Danio rerio
Danio rerio [27] = organism: Danio rerio; assay: Toxicity in wild type zebrafish embryos assessed as unhatched embryo at 5 ug/ml treated for 96 hrs post fertilization starting from 6 hrs post fertilization by inverted microscopic analysis relative to control; format: organism-based; details: in vivo
Danio rerio [28] = organism: Danio rerio; assay: Anti-melanogenic activity in wild type zebrafish 24 hrs post fertilization embryos assessed as decrease in body pigmentation at 5 to 25 ug/ml after 48 hrs; format: functional, organism-based
Danio rerio [29] = assay: Toxicity in wild type zebrafish embryos assessed as yolk edema at 25 ug/ml treated for 96 hrs post fertilization starting from 6 hrs post fertilization by inverted microscopic analysis relative to control; format: organism-based; details: in vivo
Melanocyte [30] = assay: Cytotoxicity against wild type zebrafish embryo melanocytes assessed as punctate cells at 12.5 ug/ml treated for 72 hrs post fertilization starting from 6 to 24 hrs post fertilization; format: cell-based, Danio rerio
Danio rerio [31] = organism: Danio rerio; assay: Toxicity in wild type zebrafish embryos assessed as notochord at 5 ug/ml treated for 96 hrs post fertilization starting from 6 hrs post fertilization by inverted microscopic analysis relative to control; format: organism-based; details: in vivo
Danio rerio [32] = organism: Danio rerio; assay: Toxicity in wild type zebrafish embryos assessed as skeletal deformities at 5 ug/ml treated for 96 hrs post fertilization starting from 6 hrs post fertilization by inverted microscopic analysis relative to control; format: organism-based; details: in vivo
Danio rerio [33] = organism: Danio rerio; assay: Toxicity in wild type zebrafish embryos assessed as teratogenic embryo at 50 ug/ml treated for 96 hrs post fertilization starting from 6 hrs post fertilization by inverted microscopic analysis relative to control; format: organism-based; details: in vivo
Danio rerio [34] = assay: Toxicity in wild type zebrafish embryos assessed as yolk edema at 20 ug/ml treated for 96 hrs post fertilization starting from 6 hrs post fertilization by inverted microscopic analysis relative to control; format: organism-based; details: in vivo
Danio rerio [35] = assay: Toxicity in wild type zebrafish embryos assessed as yolk edema at 5 ug/ml treated for 96 hrs post fertilization starting from 6 hrs post fertilization by inverted microscopic analysis relative to control; format: organism-based; details: in vivo
Danio rerio [36] = organism: Danio rerio; assay: Toxicity in wild type zebrafish embryos assessed as otoliths at 20 ug/ml treated for 96 hrs post fertilization starting from 6 hrs post fertilization by inverted microscopic analysis relative to control; format: organism-based; details: in vivo
Melanocyte [37] = assay: Cytotoxicity against wild type zebrafish embryo melanocytes assessed as change in morphology at 2.5 mg/ml treated for 72 hrs post fertilization starting from 6 to 24 hrs post fertilization; format: cell-based, Danio rerio

| SMILES | Activity (Melanocyte [1]) | Activity (Danio rerio [2]) | Activity (Danio rerio [3]) | Activity (Danio rerio [4]) | Activity (Danio rerio [5]) | Activity (Danio rerio [6]) | Activity (Danio rerio [7]) | Activity (Danio rerio [8]) | Activity (Danio rerio [9]) | Activity (Danio rerio [10]) | Activity (Danio rerio [11]) | mortality at 20 ug/ml [12] | Activity (Danio rerio [13]) | Activity (Danio rerio [14]) | Activity (Danio rerio [15]) | Activity (Danio rerio [23]) | Activity (Danio rerio [25]) | Activity (Melanocyte [26]) | Activity (Danio rerio [29]) | Activity (Melanocyte [30]) | other results |
| --- | --- | --- | --- | --- | --- | --- | --- | --- | --- | --- | --- | --- | --- | --- | --- | --- | --- | --- | --- | --- | --- |
| Oc1ccc(O)cc1 [HYDROQUINONE] | Non-Toxic | 80% | 0% | 0% | 100% | 100% | 100% | 0% | 100% | 71.7% | 0% | 70% | 0% | 0% | 90% | 6.7% | 0% | Non-Toxic | 100% | Non-Toxic | Activity (Danio rerio [16]): 100%; Activity (Danio rerio [17]): 0%; Activity (Danio rerio [18]): 80%; Activity (Danio rerio [19]): 100%; Activity (Danio rerio [20]): 0%; Activity (Danio rerio [21]): 36.7%; Activity (Danio rerio [22]): 100%; Activity (Danio rerio [24]): 80%; Activity (Danio rerio [27]): 0%; Activity (Danio rerio [28]): Active; Activity (Danio rerio [31]): 0%; Activity (Danio rerio [32]): 0%; Activity (Danio rerio [33]): 0%; Activity (Danio rerio [34]): 100%; Activity (Danio rerio [35]): 0%; Activity (Danio rerio [36]): 100% |
| O=c1cc(CO)occ1O [KOJIC ACID] | Non-Toxic | – | – | – | – | – | – | – | 0% | – | 0% | – | – | – | – | 0% | 100% | Non-Toxic | 0% | Non-Toxic | Activity (Melanocyte [37]): Non-Toxic |
| O=c1cc(-c2ccccc2)c2ccc(O)cc2o1 | Non-Toxic | 0% | 0% | 0% | 0% | 0% | 0% | 0% | 0% | 0% | 0% | 0% | 100% | 100% | 0% | 0% | 100% | Non-Toxic | 0% | Non-Toxic | Activity (Melanocyte [37]): Non-Toxic; Activity (Danio rerio [16]): 0%; Activity (Danio rerio [17]): 0%; Activity (Danio rerio [18]): 0%; Activity (Danio rerio [19]): 0%; Activity (Danio rerio [20]): 0%; Activity (Danio rerio [21]): 0%; Activity (Danio rerio [22]): 0%; Activity (Danio rerio [24]): 0%; Activity (Danio rerio [27]): 0%; Activity (Danio rerio [28]): Active; Activity (Danio rerio [31]): 0%; Activity (Danio rerio [32]): 0%; Activity (Danio rerio [33]): 0%; Activity (Danio rerio [34]): 0%; Activity (Danio rerio [35]): 0%; Activity (Danio rerio [36]): 0% |
| O=c1cc(-c2ccccc2)c2c(O)cc(O)cc2o1 | Non-Toxic | 0% | 0% | 0% | 0% | 0% | 0% | 0% | 0% | 0% | 0% | 0% | 100% | 75% | 0% | 0% | 100% | Non-Toxic | 0% | Non-Toxic | Activity (Melanocyte [37]): Non-Toxic; Activity (Danio rerio [16]): 0%; Activity (Danio rerio [17]): 0%; Activity (Danio rerio [18]): 0%; Activity (Danio rerio [19]): 0%; Activity (Danio rerio [20]): 0%; Activity (Danio rerio [21]): 0%; Activity (Danio rerio [22]): 0%; Activity (Danio rerio [24]): 0%; Activity (Danio rerio [27]): 0%; Activity (Danio rerio [28]): Active; Activity (Danio rerio [31]): 0%; Activity (Danio rerio [32]): 0%; Activity (Danio rerio [33]): 25%; Activity (Danio rerio [34]): 0%; Activity (Danio rerio [35]): 0%; Activity (Danio rerio [36]): 0% |
